Measurements reported in patent publication US6737383B1, “Herbicidal oxadiazolidines” (priority 1999, dated 2004).

Legend:
pigweed = assay: Test B pre/postemergence pigweed; format: in vivo, Amaranthus retroflexus
Procedure, shortened: (§1)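 Herbicidal effect was estimated by eye on a ten-point control scale after plants spent twelve to sixteen days in a greenhouse following soil or foliar treatment. Foliar sprays targeted plants at one to four leaves; all doses were formulated in a non-phytotoxic solvent with surfactant.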

cocklebur = assay: Test B pre/postemergence cocklebur; format: in vivo, Xanthium strumarium
Procedure, shortened: as §1

bamyardgrass = assay: Test B flood test barnyardgrass; format: in vivo, Echinochloa crus-galli
Procedure, shortened: (§2)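 Each value is a visual injury score relative to controls, with 10 meaning complete control and 0 no effect. Evaluation took place twelve to sixteen days after the 2-leaf-stage plants were treated and kept in the greenhouse.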

smallflower flatsedge = assay: Test B flood test smallflower flatsedge; format: in vivo, Cyperus difformis
Procedure, shortened: as §2

sugar beet = assay: Test B pre/postemergence sugar beet; format: in vivo, Beta vulgaris
Procedure, shortened: as §1

wild oat = assay: Test B pre/postemergence wild oat; format: in vivo, Avena fatua
Procedure, shortened: as §1

duck salad = assay: Test B flood test duck salad; format: in vivo, Heteranthera limosa
Procedure, shortened: as §2

rice = assay: Test B flood test rice; format: in vivo, Oryza sativa
Procedure, shortened: as §2

corn = assay: Test B pre/postemergence corn; format: in vivo, Zea mays
Procedure, shortened: as §1

rape = assay: Test B pre/postemergence rape; format: in vivo, Brassica napus
Procedure, shortened: as §1

soybean = assay: Test B pre/postemergence soybean; format: in vivo, Glycine max
Procedure, shortened: as §1

purple nutsedge = assay: Test B pre/postemergence purple nutsedge; format: in vivo, Cyperus rotundus
Procedure, shortened: as §1

morningglory = assay: Test B pre/postemergence morningglory; format: in vivo, Ipomoea hederacea
Procedure, shortened: as §1

crabgrass = assay: Test B pre/postemergence crabgrass; format: in vivo, Digitaria sanguinalis
Procedure, shortened: as §1

blackgrass = assay: Test B pre/postemergence blackgrass; format: in vivo, Alopecurus myosuroides
Procedure, shortened: as §1

wheat = assay: Test B pre/postemergence wheat; format: in vivo, Triticum aestivum
Procedure, shortened: as §1

velvetleaf = assay: Test B pre/postemergence velvetleaf; format: in vivo, Abutilon theophrasti
Procedure, shortened: as §1

surinam grass = assay: Test B pre/postemergence surinam grass; format: in vivo, Brachiaria decumbens
Procedure, shortened: as §1

giant foxtail = assay: Test B pre/postemergence giant foxtail; format: in vivo, Setaria faberii
Procedure, shortened: as §1

[1] = Postemergence, Rate 62 g/ha, scale 0 to 10, 0 is no effect, 10 is complete control
[2] = Postemergence, Rate 125 g/ha, scale of 0 to 10 where 0 is no effect and 10 is complete control
[3] = Postemergence, Rate 250 g/ha, scale of 0 to 10, 0 is no effect, 10 is complete control
[4] = Postemergence, Rate 500 g/ha, scale of 0 to 10 where 0 is no effect and 10 is complete control
[5] = Preemergence, Rate 62 g/ha, scale 0 to 10 (0 no effect, 10 complete control)
[6] = Preemergence, Rate 125 g/ha, scale of 0 to 10 where 0 is no effect and 10 is complete control
[7] = Preemergence, Rate 500 g/ha, scale of 0 to 10 where 0 is no effect and 10 is complete control
[8] = Rate 62 g/ha, flood test species, Pre-emergence, visual evaluation after twelve to sixteen days
[9] = Rate 125 g/ha, under heading Pre-emergence, flood test species, visual evaluation after twelve to sixteen days
[10] = Rate 250 g/ha, Pre-emergence (flood test species), scale 0 to 10, 0 is no effect, 10 is complete control
[11] = Rate 500 g/ha, Pre-emergence section of Table B, 0 to 10 scale (0 no effect, 10 complete control)

CC(C)N(C(=O)n1oc(=O)n(CC(C)[N+](=O)[O-])c1=O)c1ccc(F)cc1F (centres unmarked) [Compound 603]
Plant response rating, Redroot pigweed (pigweed; [1]): 0
Plant response rating, Redroot pigweed (pigweed; [2]): 0
Redroot pigweed plant response rating (pigweed; [3]): 0
Plant response rating, Redroot pigweed (pigweed; [4]): 0
Redroot pigweed plant response rating (pigweed; [5]): 0
Redroot pigweed plant response rating (pigweed; [6]): 0
Plant response rating, Redroot pigweed (pigweed; [7]): 0
Plant response rating, Cocklebur (cocklebur; [1]): 0
Plant response rating, Cocklebur (cocklebur; [2]): 0
Cocklebur plant response rating (cocklebur; [3]): 0
Plant response rating, Cocklebur (cocklebur; [4]): 0
Cocklebur plant response rating (cocklebur; [5]): 0
Cocklebur plant response rating (cocklebur; [6]): 0
Cocklebur plant response rating (0 to 10 scale) (cocklebur; Preemergence, Rate 250 g/ha): 0
Plant response rating, Cocklebur (cocklebur; [7]): 0
Plant response rating, Barnyardgrass (0 to 10 scale, 0 is no effect, 10 is complete control) (bamyardgrass; [8]): 0
Barnyardgrass plant response rating (0 to 10 scale, 0 is no effect, 10 is complete control) (bamyardgrass; [9]): 0
Barnyardgrass plant response rating (bamyardgrass; [10]): 0
Barnyardgrass plant response rating (bamyardgrass; [11]): 0
Plant response rating, S. Flatsedge (0 to 10 scale, 0 is no effect, 10 is complete control) (smallflower flatsedge; [8]): 0
S. Flatsedge plant response rating (0 to 10 scale, 0 is no effect, 10 is complete control) (smallflower flatsedge; [9]): 0
S. Flatsedge plant response rating (smallflower flatsedge; [10]): 0
S. Flatsedge plant response rating (smallflower flatsedge; [11]): 0
Plant response rating, Sugarbeets (sugar beet; [1]): 0
Plant response rating, Sugarbeets (sugar beet; [2]): 0
Sugarbeets plant response rating (sugar beet; [3]): 0
Plant response rating, Sugarbeets (sugar beet; [4]): 0
Sugarbeets plant response rating (sugar beet; [5]): 0
Sugarbeets plant response rating (sugar beet; [6]): 0
Plant response rating, Sugarbeets (sugar beet; [7]): 0
Plant response rating, Wild oats (wild oat; [1]): 0
Plant response rating, Wild oats (wild oat; [2]): 0
Wild oats plant response rating (wild oat; [3]): 0
Plant response rating, Wild oats (wild oat; [4]): 0
Wild oats plant response rating (wild oat; [5]): 0
Wild oats plant response rating (wild oat; [6]): 0
Plant response rating, Wild oats (wild oat; [7]): 0
Plant response rating, Ducksalad (0 to 10 scale, 0 is no effect, 10 is complete control) (duck salad; [8]): 0
Ducksalad plant response rating (0 to 10 scale, 0 is no effect, 10 is complete control) (duck salad; [9]): 0
Ducksalad plant response rating (duck salad; [10]): 0
Ducksalad plant response rating (duck salad; [11]): 0
Plant response rating, Rice (0 to 10 scale, 0 is no effect, 10 is complete control) (rice; [8]): 0
Rice plant response rating (0 to 10 scale, 0 is no effect, 10 is complete control) (rice; [9]): 0
Rice plant response rating (rice; [10]): 0
Rice plant response rating (rice; [11]): 0
Plant response rating, Corn (corn; [1]): 0
Plant response rating, Corn (corn; [2]): 0
Corn plant response rating (corn; [3]): 0
Plant response rating, Corn (corn; [4]): 0
Corn plant response rating (corn; [5]): 0
Corn plant response rating (corn; [6]): 0
Corn plant response rating (0 to 10 scale) (corn; Preemergence, Rate 250 g/ha): 0
Plant response rating, Corn (corn; [7]): 0
Plant response rating, Rape (rape; [1]): 0
Plant response rating, Rape (rape; [2]): 0
Rape plant response rating (rape; [3]): 0
Plant response rating, Rape (rape; [4]): 0
Rape plant response rating (rape; [5]): 0
Rape plant response rating (rape; [6]): 0
Plant response rating, Rape (rape; [7]): 0
Plant response rating, Soybean (soybean; [1]): 0
Plant response rating, Soybean (soybean; [2]): 0
Soybean plant response rating (soybean; [3]): 2
Plant response rating, Soybean (soybean; [4]): 2
Soybean plant response rating (soybean; [5]): 0
Soybean plant response rating (soybean; [6]): 0
Plant response rating, Soybean (soybean; [7]): 0
Plant response rating, Nutsedge (purple nutsedge; [1]): 0
Plant response rating, Nutsedge (purple nutsedge; [2]): 0
Nutsedge plant response rating (purple nutsedge; [3]): 0
Plant response rating, Nutsedge (purple nutsedge; [4]): 0
Nutsedge plant response rating (purple nutsedge; [5]): 0
Nutsedge plant response rating (purple nutsedge; [6]): 0
Plant response rating, Nutsedge (purple nutsedge; [7]): 0
Plant response rating, Morningglory (morningglory; [1]): 0
Plant response rating, Morningglory (morningglory; [2]): 0
Morningglory plant response rating (morningglory; [3]): 2
Plant response rating, Morningglory (morningglory; [4]): 3
Morningglory plant response rating (morningglory; [5]): 0
Morningglory plant response rating (morningglory; [6]): 0
Plant response rating, Morningglory (morningglory; [7]): 0
Plant response rating, Crabgrass (crabgrass; [1]): 0
Plant response rating, Crabgrass (crabgrass; [2]): 0
Crabgrass plant response rating (crabgrass; [3]): 0
Plant response rating, Crabgrass (crabgrass; [4]): 0
Crabgrass plant response rating (crabgrass; [5]): 0
Crabgrass plant response rating (crabgrass; [6]): 0
Plant response rating, Crabgrass (crabgrass; [7]): 0
Plant response rating, Blackgrass (blackgrass; [1]): 0
Plant response rating, Blackgrass (blackgrass; [2]): 0
Blackgrass plant response rating (blackgrass; [3]): 0
Plant response rating, Blackgrass (blackgrass; [4]): 0
Blackgrass plant response rating (blackgrass; [5]): 0
Blackgrass plant response rating (blackgrass; [6]): 0
Blackgrass plant response rating (0 to 10 scale) (blackgrass; Preemergence, Rate 250 g/ha): 0
Blackgrass plant response rating (blackgrass; [7]): 0
Plant response rating, Wheat (wheat; [1]): 0
Plant response rating, Wheat (wheat; [2]): 0
Wheat plant response rating (wheat; [3]): 0
Plant response rating, Wheat (wheat; [4]): 0
Wheat plant response rating (wheat; [5]): 0
Wheat plant response rating (wheat; [6]): 0
Plant response rating, Wheat (wheat; [7]): 0
Plant response rating, Velvetleaf (velvetleaf; [1]): 0
Plant response rating, Velvetleaf (velvetleaf; [2]): 0
Velvetleaf plant response rating (velvetleaf; [3]): 0
Plant response rating, Velvetleaf (velvetleaf; [4]): 2
Velvetleaf plant response rating (velvetleaf; [5]): 0
Velvetleaf plant response rating (velvetleaf; [6]): 0
Plant response rating, Velvetleaf (velvetleaf; [7]): 0
Plant response rating, B. signalgrass (surinam grass; [1]): 0
Plant response rating, B. signalgrass (surinam grass; [2]): 0
B. signalgrass plant response rating (surinam grass; [3]): 0
Plant response rating, B. signalgrass (surinam grass; [4]): 0
B. signalgrass plant response rating (surinam grass; [5]): 0
B. signalgrass plant response rating (surinam grass; [6]): 0
B. signalgrass plant response rating (0 to 10 scale, 0 is no effect, 10 is complete control) (surinam grass; Preemergence, Rate 250 g/ha): 0
B. signalgrass plant response rating (surinam grass; [7]): 0
Plant response rating, Giant foxtail (giant foxtail; [1]): 0
Plant response rating, Giant foxtail (giant foxtail; [2]): 0
Giant foxtail plant response rating (giant foxtail; [3]): 0
Plant response rating, Giant foxtail (giant foxtail; [4]): 0
Giant foxtail plant response rating (giant foxtail; [5]): 0
Giant foxtail plant response rating (giant foxtail; [6]): 0
Plant response rating, Giant foxtail (giant foxtail; [7]): 0
